Data: US20220348558A1, “INHIBITORS OF ENCEPHALITIC ALPHAVIRUSES” (priority 2019, published 2022)

Test system: VEEV TC83
Test: microbe, parasite or virus in culture
Assay type: cell-based
Conditions: Venezuelan equine encephalitis virus, Vero 76, 48 h, read-out: VEEV TC83 EC50 nM

| Structure (SMILES) | EC50 [nM] |
| --- | --- |
| COc1c(F)cc(-n2c(C3CCCN3)nc3c(-c4ccc(C(C)(C)O)nc4)cc(C#N)cc3c2=O)cc1F (centres unmarked) [Example 182, 3-(3,5-difluoro-4-methoxyphenyl)-8-(6-(2-hydroxypropan-2-yl)pyridin-3-yl)-4-oxo-2-(pyrrolidin-2-yl)-3,4-dihydroquinazoline-6-carbonitrile] | 1 to 50 |
| COc1ccc(-n2c([C@@H]3CC(F)(F)CN3)nc3c(-c4ccc(C)nc4)cc(C#N)cc3c2=O)cc1F [Example 183, (S)-2-(4,4-difluoropyrrolidin-2-yl)-3-(3-fluoro-4-methoxyphenyl)-8-(6-methylpyridin-3-yl)-4-oxo-3,4-dihydroquinazoline-6-carbonitrile] | 151 to 500 |
| COc1ccc(-n2c(C34CC(CN3)C4)nc3c(-c4ccc(C)nc4)cc(C#N)cc3c2=O)cc1F [Example 178, 2-(2-azabicyclo[2.1.1]hexan-1-yl)-3-(3-fluoro-4-methoxyphenyl)-8-(6-methylpyridin-3-yl)-4-oxo-3,4-dihydroquinazoline-6-carbonitrile] | 1 to 50 |
| COc1ncc(-n2c(C34CC(CN3)C4)nc3c(-c4ccc(C)nc4)cc(C#N)cc3c2=O)cn1 [Example 165, 2-(2-azabicyclo[2.1.1]hexan-1-yl)-3-(2-methoxypyrimidin-5-yl)-8-(6-methylpyridin-3-yl)-4-oxo-3,4-dihydroquinazoline-6-carbonitrile] | > 1000 |
| COc1ccc(-n2c(C3CCCN3)nc3c(-c4ccc(CO)nc4)cc(C#N)cc3c2=O)cc1F (centres unmarked) [Example 181, 3-(3-fluoro-4-methoxyphenyl)-8-(6-(hydroxymethyl)pyridin-3-yl)-4-oxo-2-(pyrrolidin-2-yl)-3,4-dihydroquinazoline-6-carbonitrile] | 1 to 50 |
| COc1ccc(-n2c([C@H]3CCCN3)nc3c(N4CCC(N5CCOCC5)CC4)cc(C#N)cc3c2=O)cc1F [Example 179, (R)-3-(3-fluoro-4-methoxyphenyl)-8-(4-morpholinopiperidin-1-yl)-4-oxo-2-(pyrrolidin-2-yl)-3,4-dihydroquinazoline-6-carbonitrile] | 1 to 50 |
| COc1ccc(-n2c(C3C[C@@H](OC)CN3)nc3c(-c4ccc(C)nc4)cc(C#N)cc3c2=O)cc1F (stereo partly drawn) [Example 120, 3-(3-fluoro-4-methoxyphenyl)-2-((4R)-4-methoxypyrrolidin-2-yl)-8-(6-methylpyridin-3-yl)-4-oxo-3,4-dihydroquinazoline-6-carbonitrile] | 151 to 500 |
| COc1ccc(-n2c([C@@H]3C[C@@](O)(C(F)(F)F)CN3)nc3c(-c4ccc(C)nc4)cc(C#N)cc3c2=O)cc1F [Example 192, 3-(3-fluoro-4-methoxyphenyl)-2-((2S,4S)-4-hydroxy-4-(trifluoromethyl)pyrrolidin-2-yl)-8-(6-methylpyridin-3-yl)-4-oxo-3,4-dihydroquinazoline-6-carbonitrile] | 1 to 50 |
| COc1ccc(-n2c(C3CCCN3)nc3c(Oc4ccc(C)nc4)cc(C#N)cc3c2=O)cc1F (centres unmarked) [Example 191, 3-(3-fluoro-4-methoxyphenyl)-8-((6-methylpyridin-3-yl)oxy)-4-oxo-2-(pyrrolidin-2-yl)-3,4-dihydroquinazoline-6-carbonitrile] | 1 to 50 |
| COc1ccc(-n2c([C@@H]3C[C@H](C(F)(F)F)CN3)nc3c(-c4ccc(C)nc4)cc(C#N)cc3c2=O)cc1F (racemic) [Example 190, cis-(±)-3-(3-fluoro-4-methoxyphenyl)-8-(6-methylpyridin-3-yl)-4-oxo-2-((2S,4S)-4-(trifluoromethyl)pyrrolidin-2-yl)-3,4-dihydroquinazoline-6-carbonitrile] | 1 to 50 |
| COc1c(F)cc(-n2c(C3CCCN3)nc3c(-c4ccc(C(C)=O)nc4)cc(C#N)cc3c2=O)cc1F (centres unmarked) [Example 177, 8-(6-acetylpyridin-3-yl)-3-(3,5-difluoro-4-methoxyphenyl)-4-oxo-2-(pyrrolidin-2-yl)-3,4-dihydroquinazoline-6-carbonitrile] | 1 to 50 |
